Measurements reported in patent US10017511B2, “Pyrazolopyrimidinones for the treatment of impotence and process for the preparation thereof” (COUNCIL OF SCIENTIFIC & INDUSTRIAL RESEARCH, priority 2014, dated 2018).

Key:
human PDE5A = human PDE5A (Homo sapiens, UniProt O76074); experiment: PDE5 enzyme inhibitory assay (PDE Glo Phosphodiesterase Assay)
Protocol: The assays were performed by following the manufacturer recommended protocol.
Data analysis was performed with GraphPad Prism®, version 5.00, for Windows using a sigmoidal dose-response (variable slope) equation. Each point represents an average of two replicates per concentration.

[1] = system: conscious rabbit (length of uncovered penile mucosa); experiment: In vivo efficacy, conscious rabbit model of penile erection; details: 3 mg/kg intravenous, SNP 0.2 mg/kg 5 min later, measured for an hour, SNP alone values subtracted
Protocol: . SNP alone was also used as a control and the values obtained were subtracted from both the molecules).
Nitric oxide is the main neurotransmitter which mediates smooth muscle relaxation by activating the guanylate cyclise during penile erection, which in turn increases the cGMP level.
This solution was injected into the ear vein of a group of five healthy male rabbit (3-3.5 kg weight) in a volume of 0.5 ml/kg. The event was followed 5 minutes later by another equal volume saline injection containing Sodium nitroprusside (0.2 mg/kg), which acts as a donor of Nitric oxide (NO). Length of uncovered penile mucosa was measured with a sliding caliper at different time points for an hour after administration of the test compounds. The area under the curve (AUC) was calculated by Graph Pad Software. Controls experiments were performed with the SNP alone injections. […]

Row | IC50 (human PDE5A) [nM] | SMILES | area under the curve (AUC) of length of uncovered penile mucosa [1]
1 | 4.8 | CCCc1nn(C)c2c(=O)[nH]c(-c3cc(S(=O)(=O)N4CCC(O)CC4)ccc3OCC)nc12 [Compound Ab, 5-(2-ethoxy-5-((4-hydroxypiperidin-1-yl)sulfonyl)phenyl)-1-methyl-3-propyl-1H-pyrazolo[4,3-d]pyrimidin-7(6H)-one] | 
2 |  | CCCc1nn(C)c2c(=O)[nH]c(-c3cc(S(=O)(=O)N4CCN(C)CC4)ccc3OCC)nc12 [Sildenafil, reference compound] | 330
3 | 0.8 | CCCc1nn(C)c2c(=O)[nH]c(-c3cc(S(=O)(=O)N4CCC(=O)CC4)ccc3OCC)nc12 [Compound Aa, 5-(2-ethoxy-5-((4-oxopiperidin-1-yl)sulfonyl)phenyl)-1-methyl-3-propyl-1H-pyrazolo[4,3-d]pyrimidin-7(6H)-one] | 722
